How the values were obtained:
Type in all cases: in vitro ADME
Conditions in all cases: 30 min, 37 °C
CYP2B6 = molecular target: T1, CYP2B6 (Homo sapiens, UniProt P20813); assay: Monooxygenases activity screening, CYP2B6; set-up: key: +, detected; -, not detected
T1 construct: purchased Discovery Life Sciences (Huntsville, LA, USA); host or cells: baculovirus-infected insect cells (microsomes, Supersomes)
T1 sequence (P20813 1-491): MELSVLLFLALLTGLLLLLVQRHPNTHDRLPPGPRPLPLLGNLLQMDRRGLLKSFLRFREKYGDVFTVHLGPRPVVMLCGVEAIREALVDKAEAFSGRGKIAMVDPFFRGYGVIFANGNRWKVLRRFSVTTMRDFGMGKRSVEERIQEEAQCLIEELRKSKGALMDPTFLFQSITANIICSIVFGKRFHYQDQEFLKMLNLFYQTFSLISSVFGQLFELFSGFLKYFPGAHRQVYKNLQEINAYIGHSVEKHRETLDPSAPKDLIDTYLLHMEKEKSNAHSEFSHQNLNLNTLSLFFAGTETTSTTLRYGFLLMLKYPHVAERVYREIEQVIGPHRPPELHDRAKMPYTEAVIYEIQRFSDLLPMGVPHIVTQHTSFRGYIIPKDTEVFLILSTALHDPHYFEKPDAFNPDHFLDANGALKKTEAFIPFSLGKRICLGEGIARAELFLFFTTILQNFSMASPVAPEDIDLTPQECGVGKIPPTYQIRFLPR
Procedure: (§1) For incubations with CYP2A6 or CYP2C9, phosphate buffer was replaced with 90 mM Tris buffer, according to the manufacturer’s guideline. […] All incubations were done in duplicate and concentrations were fixed. Verapamil (25 µM) was incubated as a positive control.

CYP2C19 = molecular target: T2, CYP2C19 (Homo sapiens, UniProt P33261); assay: Monooxygenases activity screening, CYP2C19; set-up: key: +, detected; -, not detected
T2 construct: purchased Discovery Life Sciences (Huntsville, LA, USA); host or cells: baculovirus-infected insect cells (microsomes, Supersomes)
Procedure: as §1

CYP3A4 = molecular target: T3, CYP3A4 (Homo sapiens, UniProt P08684); assay: Monooxygenases activity screening, CYP3A4; set-up: key: +, detected; -, not detected
T3 construct: purchased Discovery Life Sciences (Huntsville, LA, USA); host or cells: baculovirus-infected insect cells (microsomes, Supersomes)
Procedure: as §1

CYP2C9 = molecular target: T4, CYP2C9 (Homo sapiens, UniProt P11712); assay: Monooxygenases activity screening, CYP2C9; set-up: key: +, detected; -, not detected
T4 construct: purchased Discovery Life Sciences (Huntsville, LA, USA); host or cells: baculovirus-infected insect cells (microsomes, Supersomes)
Procedure: as §1

CYP2D6 = molecular target: T5, CYP2D6 (Homo sapiens, UniProt P10635); assay: Monooxygenases activity screening, CYP2D6; set-up: key to one-step metabolite detected in CYP2D6 incubation: +, detected; -, not detected
T5 construct: purchased Discovery Life Sciences (Huntsville, LA, USA); host or cells: baculovirus-infected insect cells (microsomes, Supersomes)
Procedure: as §1

CYP2C8 = molecular target: T6, CYP2C8 (Homo sapiens, UniProt P10632); assay: Monooxygenases activity screening, CYP2C8; set-up: key: +, detected; -, not detected
T6 construct: purchased Discovery Life Sciences (Huntsville, LA, USA); host or cells: baculovirus-infected insect cells (microsomes, Supersomes)
T6 sequence (P10632 1-490): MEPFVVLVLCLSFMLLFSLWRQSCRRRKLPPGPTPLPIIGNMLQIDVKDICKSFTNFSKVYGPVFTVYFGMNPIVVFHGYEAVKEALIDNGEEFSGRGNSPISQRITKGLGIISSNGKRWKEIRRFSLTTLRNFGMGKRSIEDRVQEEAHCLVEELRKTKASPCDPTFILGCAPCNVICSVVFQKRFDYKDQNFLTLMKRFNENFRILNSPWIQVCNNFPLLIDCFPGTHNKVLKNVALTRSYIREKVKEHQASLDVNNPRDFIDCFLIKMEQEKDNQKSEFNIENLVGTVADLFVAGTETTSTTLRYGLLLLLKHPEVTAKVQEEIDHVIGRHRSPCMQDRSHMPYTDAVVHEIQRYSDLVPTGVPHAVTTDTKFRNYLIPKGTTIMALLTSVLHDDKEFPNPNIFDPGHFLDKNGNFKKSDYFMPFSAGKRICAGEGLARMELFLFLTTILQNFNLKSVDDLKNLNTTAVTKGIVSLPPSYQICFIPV
Procedure: as §1

CYP2E1 = molecular target: T7, CYP2E1 (Homo sapiens, UniProt P05181); assay: Monooxygenases activity screening, CYP2E1; set-up: key: +, detected; -, not detected
T7 construct: purchased Discovery Life Sciences (Huntsville, LA, USA); host or cells: baculovirus-infected insect cells (microsomes, Supersomes)
Procedure: as §1

CYP2A6 = molecular target: T8, CYP2A6 (Homo sapiens, UniProt P11509); assay: Monooxygenases activity screening, CYP2A6; set-up: key: +, detected; -, not detected
T8 construct: purchased Discovery Life Sciences (Huntsville, LA, USA); host or cells: baculovirus-infected insect cells (microsomes, Supersomes)
T8 sequence (P11509 1-494): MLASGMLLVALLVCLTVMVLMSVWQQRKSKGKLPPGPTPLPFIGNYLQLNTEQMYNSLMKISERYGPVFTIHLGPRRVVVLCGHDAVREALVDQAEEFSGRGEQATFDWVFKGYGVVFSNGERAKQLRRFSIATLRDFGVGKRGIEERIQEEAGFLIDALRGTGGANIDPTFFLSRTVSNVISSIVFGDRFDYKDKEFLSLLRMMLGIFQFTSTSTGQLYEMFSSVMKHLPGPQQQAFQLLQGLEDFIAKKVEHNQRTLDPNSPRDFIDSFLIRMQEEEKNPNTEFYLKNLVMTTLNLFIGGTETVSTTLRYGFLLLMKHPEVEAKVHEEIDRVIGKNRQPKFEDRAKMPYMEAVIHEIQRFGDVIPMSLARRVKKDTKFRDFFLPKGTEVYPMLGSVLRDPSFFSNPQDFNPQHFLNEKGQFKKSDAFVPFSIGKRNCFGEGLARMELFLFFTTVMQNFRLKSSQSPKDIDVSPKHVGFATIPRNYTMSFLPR
Procedure: as §1

[1] = molecular target: T9, flavin-containing monooxygenase 3 (FMO3) (Homo sapiens, UniProt P31513); assay: Monooxygenases activity screening, FMO3; set-up: key: +, detected; -, not detected
T9 construct: purchased Discovery Life Sciences (Huntsville, LA, USA); host or cells: baculovirus-infected insect cells (microsomes, Supersomes)
T9 sequence (P31513 1-532): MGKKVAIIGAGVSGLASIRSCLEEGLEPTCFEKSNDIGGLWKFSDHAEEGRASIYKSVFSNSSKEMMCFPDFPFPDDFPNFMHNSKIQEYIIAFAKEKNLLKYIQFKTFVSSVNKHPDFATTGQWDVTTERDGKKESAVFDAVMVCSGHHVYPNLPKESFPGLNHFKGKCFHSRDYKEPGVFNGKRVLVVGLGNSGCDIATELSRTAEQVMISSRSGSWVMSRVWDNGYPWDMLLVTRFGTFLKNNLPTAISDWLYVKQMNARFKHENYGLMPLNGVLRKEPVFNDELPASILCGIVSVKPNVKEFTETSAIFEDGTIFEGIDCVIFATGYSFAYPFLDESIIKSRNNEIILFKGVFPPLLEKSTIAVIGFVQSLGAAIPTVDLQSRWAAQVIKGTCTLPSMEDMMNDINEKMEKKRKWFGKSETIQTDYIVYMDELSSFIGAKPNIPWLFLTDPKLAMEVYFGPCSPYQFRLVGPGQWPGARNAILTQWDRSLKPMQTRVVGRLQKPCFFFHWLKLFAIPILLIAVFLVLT
Procedure: as §1

CYP3A5 = molecular target: T10, CYP3A5 (Homo sapiens, UniProt P20815); assay: Monooxygenases activity screening, CYP3A5; set-up: key: +, detected; -, not detected
T10 construct: purchased Discovery Life Sciences (Huntsville, LA, USA); host or cells: baculovirus-infected insect cells (microsomes, Supersomes)
Procedure: as §1

CYP1A2 = molecular target: T11, CYP1A2 (Homo sapiens, UniProt P05177); assay: Monooxygenases activity screening, CYP1A2; set-up: key: +, detected; -, not detected
T11 construct: purchased Discovery Life Sciences (Huntsville, LA, USA); host or cells: baculovirus-infected insect cells (microsomes, Supersomes)
T11 sequence (P05177 1-516): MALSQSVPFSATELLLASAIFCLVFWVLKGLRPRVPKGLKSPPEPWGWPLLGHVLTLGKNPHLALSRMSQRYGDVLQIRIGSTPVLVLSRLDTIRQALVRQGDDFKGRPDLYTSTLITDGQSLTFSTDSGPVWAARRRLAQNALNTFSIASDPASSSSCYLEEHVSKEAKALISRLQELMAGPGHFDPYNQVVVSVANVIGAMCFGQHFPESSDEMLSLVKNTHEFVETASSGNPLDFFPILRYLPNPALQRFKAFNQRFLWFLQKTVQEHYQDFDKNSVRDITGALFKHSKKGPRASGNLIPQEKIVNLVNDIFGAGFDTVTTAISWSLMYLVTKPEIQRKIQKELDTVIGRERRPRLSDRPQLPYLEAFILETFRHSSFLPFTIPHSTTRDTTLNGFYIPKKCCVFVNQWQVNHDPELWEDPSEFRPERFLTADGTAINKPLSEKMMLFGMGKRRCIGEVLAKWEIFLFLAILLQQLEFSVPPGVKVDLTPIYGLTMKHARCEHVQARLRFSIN
Procedure: as §1

[2] = substrate 4MeS-NE-BP 25 µM, Table S3.4
[3] = substrate 4MeS-αMor-PrP 25 µM, Table S3.6
[4] = substrate 4MeO-αP-VP 25 µM, Table S3.3
[5] = substrate 4MeS-αP-BP 25 µM, Table S3.5

T2 sequence (P33261 whole entry): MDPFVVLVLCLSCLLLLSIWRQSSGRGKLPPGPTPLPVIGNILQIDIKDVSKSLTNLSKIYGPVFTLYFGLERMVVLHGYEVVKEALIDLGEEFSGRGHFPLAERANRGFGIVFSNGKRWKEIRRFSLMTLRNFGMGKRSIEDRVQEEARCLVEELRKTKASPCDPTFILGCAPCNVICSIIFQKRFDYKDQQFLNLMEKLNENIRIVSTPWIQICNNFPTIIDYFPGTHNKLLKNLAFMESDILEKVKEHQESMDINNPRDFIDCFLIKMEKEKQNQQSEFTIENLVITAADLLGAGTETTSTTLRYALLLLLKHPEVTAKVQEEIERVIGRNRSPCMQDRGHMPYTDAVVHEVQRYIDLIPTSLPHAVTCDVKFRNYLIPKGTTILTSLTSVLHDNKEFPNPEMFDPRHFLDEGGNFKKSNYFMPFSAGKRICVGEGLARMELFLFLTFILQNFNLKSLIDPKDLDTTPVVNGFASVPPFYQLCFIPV
T7 sequence (P05181 whole entry): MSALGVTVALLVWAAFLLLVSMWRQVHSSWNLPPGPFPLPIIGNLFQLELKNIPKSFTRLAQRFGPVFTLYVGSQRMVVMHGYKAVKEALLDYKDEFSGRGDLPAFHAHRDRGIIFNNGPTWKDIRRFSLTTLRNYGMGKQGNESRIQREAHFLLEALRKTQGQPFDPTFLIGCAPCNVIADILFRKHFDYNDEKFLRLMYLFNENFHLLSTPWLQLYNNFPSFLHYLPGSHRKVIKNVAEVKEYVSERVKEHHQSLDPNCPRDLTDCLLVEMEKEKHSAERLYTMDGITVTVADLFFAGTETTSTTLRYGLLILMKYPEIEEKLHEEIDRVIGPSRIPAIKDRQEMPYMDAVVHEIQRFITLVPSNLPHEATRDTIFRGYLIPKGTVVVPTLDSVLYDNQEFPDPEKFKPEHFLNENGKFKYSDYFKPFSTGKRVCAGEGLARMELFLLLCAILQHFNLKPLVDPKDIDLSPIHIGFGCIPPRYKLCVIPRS
T5 sequence (P10635 whole entry): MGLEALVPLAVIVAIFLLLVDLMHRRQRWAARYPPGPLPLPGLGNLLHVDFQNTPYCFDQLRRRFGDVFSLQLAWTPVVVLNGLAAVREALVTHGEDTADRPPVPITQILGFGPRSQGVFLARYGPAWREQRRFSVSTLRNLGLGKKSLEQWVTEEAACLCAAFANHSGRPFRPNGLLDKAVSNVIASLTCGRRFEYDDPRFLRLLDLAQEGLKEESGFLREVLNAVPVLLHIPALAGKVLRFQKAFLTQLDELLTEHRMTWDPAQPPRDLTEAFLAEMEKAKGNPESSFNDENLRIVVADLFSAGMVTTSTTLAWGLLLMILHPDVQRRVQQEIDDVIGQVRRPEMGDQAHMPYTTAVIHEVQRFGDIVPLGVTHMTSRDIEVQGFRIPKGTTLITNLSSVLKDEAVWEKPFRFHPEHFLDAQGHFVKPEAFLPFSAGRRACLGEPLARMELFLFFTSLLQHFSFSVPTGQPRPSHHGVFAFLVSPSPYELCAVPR
T3 sequence (P08684 whole entry): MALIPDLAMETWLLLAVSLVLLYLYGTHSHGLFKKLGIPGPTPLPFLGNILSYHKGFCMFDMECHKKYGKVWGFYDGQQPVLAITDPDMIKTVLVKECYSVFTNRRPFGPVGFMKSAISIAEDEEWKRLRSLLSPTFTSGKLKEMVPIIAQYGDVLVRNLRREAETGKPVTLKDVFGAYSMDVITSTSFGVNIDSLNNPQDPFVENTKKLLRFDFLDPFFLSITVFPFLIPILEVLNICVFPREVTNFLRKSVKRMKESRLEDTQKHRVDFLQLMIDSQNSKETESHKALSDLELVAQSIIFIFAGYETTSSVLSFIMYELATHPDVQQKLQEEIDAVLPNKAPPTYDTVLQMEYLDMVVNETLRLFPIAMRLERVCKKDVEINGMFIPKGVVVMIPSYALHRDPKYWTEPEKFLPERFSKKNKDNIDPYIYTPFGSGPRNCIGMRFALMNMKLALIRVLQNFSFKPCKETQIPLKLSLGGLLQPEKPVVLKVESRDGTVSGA
T4 sequence (P11712 whole entry): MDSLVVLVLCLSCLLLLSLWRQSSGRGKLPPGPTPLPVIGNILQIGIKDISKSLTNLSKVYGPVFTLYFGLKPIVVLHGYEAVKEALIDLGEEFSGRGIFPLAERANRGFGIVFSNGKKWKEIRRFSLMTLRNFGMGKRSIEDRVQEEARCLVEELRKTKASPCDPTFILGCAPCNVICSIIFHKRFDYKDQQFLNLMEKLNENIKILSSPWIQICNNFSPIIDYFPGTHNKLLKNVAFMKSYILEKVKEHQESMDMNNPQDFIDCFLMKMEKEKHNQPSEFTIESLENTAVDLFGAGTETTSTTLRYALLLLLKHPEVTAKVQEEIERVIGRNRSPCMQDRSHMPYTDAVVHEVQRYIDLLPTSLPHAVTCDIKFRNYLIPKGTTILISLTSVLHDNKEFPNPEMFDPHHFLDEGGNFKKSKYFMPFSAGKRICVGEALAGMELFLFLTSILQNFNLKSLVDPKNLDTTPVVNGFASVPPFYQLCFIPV
T10 sequence (P20815 whole entry): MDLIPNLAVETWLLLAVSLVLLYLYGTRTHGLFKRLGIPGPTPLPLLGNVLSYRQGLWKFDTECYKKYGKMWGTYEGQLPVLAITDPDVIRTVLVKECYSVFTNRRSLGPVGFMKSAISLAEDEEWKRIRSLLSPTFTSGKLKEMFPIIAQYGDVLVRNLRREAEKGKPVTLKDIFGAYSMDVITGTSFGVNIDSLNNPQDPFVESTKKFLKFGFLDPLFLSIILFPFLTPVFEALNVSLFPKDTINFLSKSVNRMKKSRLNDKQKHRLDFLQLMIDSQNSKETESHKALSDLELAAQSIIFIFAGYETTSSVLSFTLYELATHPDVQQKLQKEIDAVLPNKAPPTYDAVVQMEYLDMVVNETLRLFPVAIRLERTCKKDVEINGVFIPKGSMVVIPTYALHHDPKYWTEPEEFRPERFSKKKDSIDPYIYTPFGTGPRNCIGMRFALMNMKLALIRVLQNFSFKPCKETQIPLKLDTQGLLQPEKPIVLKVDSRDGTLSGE

CCC(N)C(=O)c1ccc(SC)cc1 (centres unmarked) [MT1.3]
+: one-step metabolite detected in CYP2B6 incubation (CYP2B6; [2]) | one-step metabolite detected in CYP2C19 incubation (CYP2C19; [2]) | one-step metabolite detected in CYP3A4 incubation (CYP3A4; [2]) | one-step metabolite detected in CYP2D6 incubation (CYP2D6; [2]) | one-step metabolite detected in CYP2C8 incubation (CYP2C8; [2]) | one-step metabolite detected in CYP3A5 incubation (CYP3A5; [2]) | one-step metabolite detected in CYP1A2 incubation (CYP1A2; [2])
-: one-step metabolite detected in CYP2C9 incubation (CYP2C9; [2]) | one-step metabolite detected in CYP2E1 incubation (CYP2E1; [2]) | one-step metabolite detected in CYP2A6 incubation (CYP2A6; [2]) | one-step metabolite detected in FMO3 incubation [1, 2]

CSc1ccc(C(=O)C(C)[N+]2([O-])CCOCC2)cc1 (centres unmarked) [MT3.3]
+: one-step metabolite detected in CYP2A6 incubation (CYP2A6; [3]) | one-step metabolite detected in FMO3 incubation [1, 3]
-: one-step metabolite detected in CYP2B6 incubation (CYP2B6; [3]) | one-step metabolite detected in CYP2C19 incubation (CYP2C19; [3]) | one-step metabolite detected in CYP3A4 incubation (CYP3A4; [3]) | one-step metabolite detected in CYP2C9 incubation (CYP2C9; [3]) | one-step metabolite detected in CYP2D6 incubation (CYP2D6; [3]) | one-step metabolite detected in CYP2C8 incubation (CYP2C8; [3]) | one-step metabolite detected in CYP2E1 incubation (CYP2E1; [3]) | one-step metabolite detected in CYP3A5 incubation (CYP3A5; [3]) | one-step metabolite detected in CYP1A2 incubation (CYP1A2; [3])

CCCC(C(=O)c1ccc(OC)cc1)[N+]1([O-])CCCC1 (centres unmarked) [MO3.4]
-: one-step metabolite detected in CYP2B6 incubation (CYP2B6; [4]) | one-step metabolite detected in CYP2C19 incubation (CYP2C19; [4]) | one-step metabolite detected in CYP2C9 incubation (CYP2C9; [4]) | one-step metabolite detected in CYP2C8 incubation (CYP2C8; [4]) | one-step metabolite detected in CYP2E1 incubation (CYP2E1; [4]) | one-step metabolite detected in CYP3A5 incubation (CYP3A5; [4])
+: one-step metabolite detected in CYP3A4 incubation (CYP3A4; [4]) | one-step metabolite detected in CYP2D6 incubation (CYP2D6; [4]) | one-step metabolite detected in CYP2A6 incubation (CYP2A6; [4]) | one-step metabolite detected in FMO3 incubation [1, 4] | one-step metabolite detected in CYP1A2 incubation (CYP1A2; [4])

CCC(C(=O)c1ccc(S)cc1)N1CCCC1 (centres unmarked) [MT2.1]
-: one-step metabolite detected in CYP2B6 incubation (CYP2B6; [5]) | one-step metabolite detected in CYP2C19 incubation (CYP2C19; [5]) | one-step metabolite detected in CYP3A4 incubation (CYP3A4; [5]) | one-step metabolite detected in CYP2C9 incubation (CYP2C9; [5]) | one-step metabolite detected in CYP2C8 incubation (CYP2C8; [5]) | one-step metabolite detected in CYP2E1 incubation (CYP2E1; [5]) | one-step metabolite detected in CYP2A6 incubation (CYP2A6; [5]) | one-step metabolite detected in FMO3 incubation [1, 5] | one-step metabolite detected in CYP3A5 incubation (CYP3A5; [5]) | one-step metabolite detected in CYP1A2 incubation (CYP1A2; [5])
+: one-step metabolite detected in CYP2D6 incubation (CYP2D6; [5])

Source: article PMC12858467, “In vitro toxicokinetics and metabolic profiling of methoxycathinones and methylthiocathinones using human liver systems and hyphenated mass spectrometry” (Archives of Toxicology, 2025)
